Here are results for 11 molecules from US7132419B2, “Pharmaceutical compounds” (Xenova Limited, priority 2000, dated 2006).

Data set [1] relates to Jurkat human leukaemia cell line (JLC). Description: Cytotoxicity, Jurkat leukaemia cell line JLC. Particulars: concentration required to give 50% cell kill. The format is cell-based. The procedure:
(§1) The cytotoxicity of the compounds described herein was also measured using the Jurkat human leukaemia cell line (JLC) and also the amsacrine-resistant Jurkat human leukaemia cell line (JLA) and the doxorubicin-resistant Jurkat human leukaemia cell line (JLD). The cytotoxicity, as measured by the IC50 (concentration required to give 50% cell kill) in the JLA or JLD cell line divided by the cytotoxicity in the JLC cell line gives an indication of the degree to which a compound may be affected by atypical drug resistance and is termed the resistance factor (Rf) of the compound. The method used has been described previously (Finlay et al, Eur J. Cancer 32A, 708–714, 1996). Compounds were active in the range 1 nM to 5 μM.

Data set [2] deals with amsacrine-resistant Jurkat human leukaemia cell line (JLA). Kind of data set: Cytotoxicity, amsacrine-resistant Jurkat cell line JLA. Conditions: for IC50: concentration required to give 50% cell kill; for Rf (JLA/JLC): IC50 in JLA divided by IC50 in JLC, atypical drug resistance. The format is cell-based. As to the method: as §1
Data set [3] concerns doxorubicin-resistant Jurkat human leukaemia cell line (JLD). Description: Cytotoxicity, doxorubicin-resistant Jurkat cell line JLD. The format is cell-based. Particulars: for IC50: concentration required to give 50% cell kill; for Rf (JLD/JLC): IC50 in JLD divided by IC50 in JLC, atypical drug resistance. As to the method:
as §1

Data set [4] relates to H69 parental (H69/P) human small cell lung carcinoma cell line. Description: Cytotoxicity, H69 parental cell line (AlamarBlue). Particulars: concentration required to give 50% cell kill, 5–6 days incubation. Format: cell-based. The procedure: (§2) The cytotoxicity of compounds of formula (I) was measured using the H69 parental (H69/P) human small cell lung carcinoma cell line and the drug resistant human small cell lung carcinoma cell line H69/LX4 which overexpresses P-glycoprotein (Pgp). The cytotoxicity, as measured by the IC50 (concentration required to give 50% cell kill) in the H69/LX4 cell line divided by the cytotoxicity in the H69/P cell line gives an indication of the degree to which a compound is affected by Pgp-dependent MDR and is termed the resistance factor (Rf) of the compound.
(§3) H69/P and H69/LX4 cells were pipetted into 96-well tissue culture plates and then allowed to incubate at 37° C. for 4 h. […] The plates were incubated for 5–6 days before adding AlamarBlue to each well and returning the plates to the incubator for 5–8 h to allow colour development. The cell numbers in the plates at the end of this period were directly proportional to the absorbance measured at a wavelength of 570 nm (reference wavelength 600 nm).
On the technique in general: Resazurin is reduced to fluorescent resorufin, in cell work by metabolically active cells.

Data set [5] deals with drug resistant human small cell lung carcinoma cell line H69/LX4 which overexpresses P-glycoprotein (Pgp). Description: Cytotoxicity, drug resistant H69/LX4 cell line (AlamarBlue). The format is cell-based. Conditions: for IC50: concentration required to give 50% cell kill, 5–6 days incubation; for Rf (resistance factor): IC50 in H69/LX4 divided by IC50 in H69/P, Pgp-dependent MDR. As to the method: as §2, §3

Data set [6] deals with COR-L23 parental (COR-L23/P) human non-small cell lung carcinoma cell line. Description: Cytotoxicity, COR-L23 parental cell line (SRB assay). Format: cell-based. Particulars: concentration required to give 50% cell kill, 5–6 days incubation. As to the method:
(§4) The cytotoxicity of the compounds described herein was also measured using the COR-L23 parental (COR-L23/P) human non-small cell lung carcinoma cell line and also the drug resistant human non-small cell lung carcinoma cell line COR-L23/R which overexpresses multidrug resistance associated protein (MRP). The cytotoxicity, as measured by the IC50 (concentration required to give 50% cell kill) in the L23/R cell line divided by the cytotoxicity in the L23/P cell line gives an indication of the degree to which a compound may be affected by MRP-dependant MDR and is termed the resistance factor (Rf) of the compound.
(§5) L23/P and L23/R cells were pipetted into 96-well tissue culture plates and then allowed to incubate at 37° C. for 4 h. […] The plates were incubated for 5–6 days before proliferation was assessed using the sulphurhodamine B (SRB) assay as described by Skehan et al, J Natl Cancer Inst 1990, 82, pp 1107–1112.
For orientation: In SRB staining, fixed cells bind dye roughly in proportion to their protein.

A short description of data set [7]: Cytotoxicity, drug resistant COR-L23/R cell line (SRB assay). The format is cell-based, human. Particulars: Homo sapiens, COR-L23/R; concentration required to give 50% cell kill; 5–6 days incubation. As to the method: as §4, §5
The subject of data set [8] is drug resistant human non-small cell lung carcinoma cell line COR-L23/R which overexpresses multidrug resistance associated protein (MRP). The description is as above. The format is cell-based. Particulars: for Rf (resistance factor): IC50 in L23/R divided by IC50 in L23/P, MRP-dependant MDR. As to the method:
as §4, §5

The next data set concerns the target T1, topoisomerase I (Homo sapiens, UniProt P11387).
T1 sequence (P11387 1-765): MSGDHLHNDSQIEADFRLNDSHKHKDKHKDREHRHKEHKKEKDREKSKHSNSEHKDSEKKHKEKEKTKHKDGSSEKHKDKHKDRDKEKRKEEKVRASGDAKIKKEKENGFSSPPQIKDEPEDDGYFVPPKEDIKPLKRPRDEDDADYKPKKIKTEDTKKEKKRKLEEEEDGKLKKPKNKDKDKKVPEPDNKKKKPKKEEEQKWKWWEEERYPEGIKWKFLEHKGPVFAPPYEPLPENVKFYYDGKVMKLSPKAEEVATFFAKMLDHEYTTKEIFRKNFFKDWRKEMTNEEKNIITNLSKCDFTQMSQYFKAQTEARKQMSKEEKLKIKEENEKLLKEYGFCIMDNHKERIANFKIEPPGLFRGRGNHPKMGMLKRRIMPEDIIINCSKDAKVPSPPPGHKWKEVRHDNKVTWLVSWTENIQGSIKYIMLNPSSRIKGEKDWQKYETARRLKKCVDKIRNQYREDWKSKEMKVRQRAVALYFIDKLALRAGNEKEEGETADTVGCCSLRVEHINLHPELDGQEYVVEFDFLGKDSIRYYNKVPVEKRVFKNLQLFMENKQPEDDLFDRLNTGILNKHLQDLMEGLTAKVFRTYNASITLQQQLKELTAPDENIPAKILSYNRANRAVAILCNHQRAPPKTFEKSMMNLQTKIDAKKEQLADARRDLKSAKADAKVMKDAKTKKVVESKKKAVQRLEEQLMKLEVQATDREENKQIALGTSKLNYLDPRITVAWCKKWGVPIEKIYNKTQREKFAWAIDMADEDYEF
Kind of data set: Stabilisation of cleavable complexes, topoisomerase I. Format: biochemical. Conditions: range where an increase in cleavable complexes was observed relative to controls in the absence of drug. The text has this: (§6) Compounds were also studied for their ability to stabilize cleavable complexes in the presence of either topoisomerase I or II essentially as described previously (Finlay et al, Eur J. Cancer 32A, 708–714, 1996). Presence of cleavable complexes was indicated by an increase in the number and intensity of bands observed after electrophoresis and autoradiography. The results are expressed as the effective concentration range where an increase in cleavable complexes was observed relative to controls in the absence of drug.

The next data set deals with topoisomerase II. Description: Stabilisation of cleavable complexes, topoisomerase II. The format is biochemical. Particulars: range where an increase in cleavable complexes was observed relative to controls in the absence of drug.
From the text: as §6

For the molecule `CN(C)CCNC(=O)c1cccc2nc3ccc4cc(O)ccc4c3nc12` [Compound 2, 3-Hydroxy-benzo[a]phenazine-11-carboxylic acid (2-dimethylamino-ethyl)-amide], the half-maximal inhibitory concentration (IC50) – broadly, the concentration that gives 50% inhibition – in data set [1] (Homo sapiens, Jurkat) turned out to be 37 nM; in [2] (Homo sapiens, Jurkat), 96 nM; in data set [3] (Homo sapiens, Jurkat), 107 nM. In addition, in data set [2], the “Rf (JLA/JLC)” value came to 2.6. In addition, the “Rf (JLD/JLC)” value in [3] was determined as 2.9.

Consider `CN(C)CCNC(=O)c1cccc2nc3ccc4c(OCC#N)cccc4c3nc12` [Compound 11, 4-Cyanomethoxy-benzo[a]phenazine-11-carboxylic acid (2-dimethylamino-ethyl)-amide], for which the half-maximal inhibitory concentration (IC50) amounted to 28 nM in data set [4] (Homo sapiens); 24 nM in [5] (Homo sapiens); 6.1 nM in data set [6] (Homo sapiens, COR-L23); 17.7 nM in data set [7]. Moreover, the “Rf (resistance factor)” value in data set [5] is reported as 0.9; in data set [8], 2.9.

Turning to `COc1cccc2c1ccc1nc3cccc(C(=O)NC(C)CN(C)C)c3nc12` (stereo not drawn) [Compound 35, 4-Methoxy-benzo[a]phenazine-11-carboxylic acid (2-dimethylamino-1-methyl-ethyl)-amide], the half-inhibitory concentration (IC50) in data set [1] (Homo sapiens, Jurkat) is 28 nM; in data set [2] (Homo sapiens, Jurkat), 19 nM; in [3] (Homo sapiens, Jurkat), 25 nM. Further, the “Rf (JLA/JLC)” value in data set [2] stood at 0.7. Besides, in data set [3], the “Rf (JLD/JLC)” value is 0.9. The “Effective concentration range, Topoisomerase I” value at topoisomerase I was in the range of 0.03 to 1.0 µM. Further, the “Effective concentration range, Topoisomerase II” value in the data set on topoisomerase II is 0.03 to 1.0 µM.

In the case of `CN(C)CCNC(=O)c1c(O)ccc2nc3ccc4c(O)cccc4c3nc12` [Compound 68, 4,10-Dihydroxy-benzo[a]phenazine-11-carboxylic acid (2-dimethylamino-ethyl)-amide], the 50% inhibitory concentration (IC50) worked out at 19 nM in data set [4] (Homo sapiens); 25 nM in data set [5] (Homo sapiens); 13.1 nM in [6] (Homo sapiens, COR-L23); 44.4 nM in [7]. The figures for the “Rf (resistance factor)” value in [5] and in data set [8] were 1.3 and 3.4, respectively.

Regarding `COc1cccc2c1ccc1nc3cccc(C(=O)NC(CO)CN(C)C)c3nc12` (stereo not drawn) [Compound 75, 4-Methoxy-benzo[a]phenazine-11-carboxylic acid (2-dimethylamino-1-hydroxymethyl-ethyl)-amide], the IC50 in data set [4] (Homo sapiens) amounted to 23 nM; in data set [5] (Homo sapiens) it was 28 nM; in data set [6] (Homo sapiens, COR-L23) it was 13 nM; in [7], 17.2 nM. For the same molecule, the “Rf (resistance factor)” value is 1.2 in data set [5] and 1.3 in data set [8].

As to `COc1cccc2c1ccc1nc3cccc(C(=O)N[C@H](CO)CN(C)C)c3nc12` [Compound 81, 4-Methoxy-benzo[a]phenazine-11-carboxylic acid (2-dimethylamino-1-(S)-hydroxymethyl-ethyl)-amide], the IC50 in [4] (Homo sapiens) was found to be 20 nM; in data set [5] (Homo sapiens), 25 nM; in data set [6] (Homo sapiens, COR-L23), 4 nM; in [7], 12.4 nM; in data set [1] (Homo sapiens, Jurkat), 8.7 nM; in [2] (Homo sapiens, Jurkat) it was 9.2 nM. In addition, the half-maximal inhibitory concentration (IC50) in data set [3] (Homo sapiens, Jurkat) came out at 9.3 nM. Also, the “Rf (resistance factor)” value in data set [5] stood at 1.2; in data set [8], 3.1. In data set [2], the “Rf (JLA/JLC)” value is given as 1.1. For the same molecule, the “Rf (JLD/JLC)” value in data set [3] is 1.1.

For `COc1cccc2c1ccc1nc3cccc(C(=O)NC(C)(CCO)N(C)C)c3nc12` (stereo not drawn) [Compound 87, 4-Methoxy-benzo[a]phenazine-11-carboxylic acid [1-dimethylamino-1-(2-hydroxyethyl)]-ethylamide], in data set [1], 16 nM corresponded to half-maximal inhibition (IC50). In data set [2], the “Rf (JLA/JLC)” value is on record as 1.0 and the IC50 turned out to be 16 nM. Besides, in data set [3], the “Rf (JLD/JLC)” value came to 1.0 and the IC50 was found to be 17 nM.

For `COc1cc(C(=O)NCCN(C)C)c2nc3c(ccc4c(OC)cccc43)nc2c1` [Compound 94, 4,9-Dimethoxy-benzo[a]phenazine-11-carboxylic acid (2-dimethylamino-ethyl)-amide], the IC50 in [4] (Homo sapiens) stood at 19 nM; in [5] (Homo sapiens), 25 nM; in [6] (Homo sapiens, COR-L23) it was 5.7 nM; in data set [7], 3.8 nM; in [1] (Homo sapiens, Jurkat), 9.2 nM; in data set [2] (Homo sapiens, Jurkat), 16 nM. For the same molecule, the midpoint of inhibition in [3] (Homo sapiens, Jurkat), the IC50, lay at 14 nM. Moreover, the “Rf (resistance factor)” value is listed as 1.3 in [5] and 0.7 in [8]. The “Rf (JLA/JLC)” value in data set [2] is 1.8. Moreover, the “Rf (JLD/JLC)” value in data set [3] was determined as 1.6.

Regarding `COc1cccc2c1ccc1nc3cccc(C(=O)N[C@@H](CN(C)C)C(C)C)c3nc12` [Compound 98, (R)-4-Methoxy-benzo[a]phenazine-11-carboxylic acid(1-dimethylaminomethyl-2-methyl-propyl)-amide], the 50% inhibitory concentration (IC50) in data set [4] turned out to be 21 nM; in data set [5], 20 nM; in data set [6] it was 9.6 nM; in data set [8] (concentration required to give 50% cell kill, 5–6 days incubation) it was 8.8 nM; in data set [1], 8.6 nM; in data set [2], 18 nM. In data set [3], this molecule yielded a half-inhibitory concentration (IC50) of 14 nM. Also, the “Rf (resistance factor)” value in [5] was found to be 1; in data set [8], 0.9. In addition, the “Rf (JLA/JLC)” value in data set [2] amounted to 2.1. Besides, the “Rf (JLD/JLC)” value in [3] stood at 1.6.

Consider `COc1cccc2c1C(=O)c1c(O)c3c(c(O)c1C2=O)C[C@@](O)(C(=O)CO)C[C@@H]3O[C@H]1C[C@H](N)[C@H](O)[C@H](C)O1` [Doxorubicin, reference compound], for which the IC50 was determined as 3700 nM in [5] (Homo sapiens) and 7 nM in data set [1] (Homo sapiens, Jurkat). In addition, the “Rf (resistance factor)” value stood at 135 in [5] and 16.1 in data set [8]. For the same molecule, in data set [2], the “Rf (JLA/JLC)” value is on record as 3.7.

On to `CC[C@@]1(O)C(=O)OCc2c1cc1n(c2=O)Cc2cc3c(CN(C)C)c(O)ccc3nc2-1` [Topotecan, reference compound], for which the “Rf (resistance factor)” value in data set [5] stood at 3.9; in data set [8] it was 1.5.
